Data reported in US10100005B1 (Eclipse Therapeutics, LLC, priority 2017, dated 2018).

How the values were obtained:
Format in all cases: physicochemical
[1] = Solubility testing in sodium phosphate buffer; details: thermodynamic from solid; aqueous buffer, 0.02 molar dibasic sodium phosphate; sonicated, undissolved solid weighed
Experimental: Compounds of Formulas I and II, prepared as described in the examples above, were tested to determine their solubility in a sodium phosphate buffer.
An aqueous buffer solution comprising 0.02 molar dibasic sodium phosphate was prepared. A weighted amount of solid was sonicated in the buffer, and then centrifuged to collect the undissolved material. The undissolved solid was dried in vacuuo and weighed. The mass of the undissolved portion was then used to calculate the mass that was successfully dissolved in the known volume of buffer.

[2] = In vitro testing: decomposition to 5-ASA in phosphate buffer (pH 6.5), by infusion MS and LCMS; details: 10 mg in 10 ml phosphate buffer (pH 6.5) overnight
Experimental: 10 mg of 5-ethylglyoxyliminosalicylic acid (prepared as described in Example 4 above) was stored in 10 ml phosphate buffer (pH 6.5) overnight.

[3] = Solution stability in aqueous sodium phosphate buffer (visual, photographs); details: for appearance of solution after storage: 11 mg in 5 ml 0.02 molar dibasic sodium phosphate buffer, ambient temperature, 3 days
Experimental: An aqueous buffer solution comprising 0.02 molar dibasic sodium phosphate was prepared. An 11 mg sample of 5-glyoxyliminosalicylic acid (Formula Ia-i) was added to a vial containing 5 ml of the buffer solution. […] Both vials were stored at ambient temperature.

[4] = In vitro testing: mesalamine (5-ASA) evolution from 5-glyoxyliminosalicylic acid in buffered saline, by HPLC
Experimental: The vial was held at ambient temperature for 22.75 hours and sampled. […] No other peaks were present.
Without being bound to a particular theory, it is believed that for 5-glyoxyliminosalicylic acid, the presence of chloride greatly increases the rate of mesalamine evolution.

Structure (SMILES)	solubility [1]	other results
O=C(O)/C=N/c1ccc(C(=O)O)c(O)c1 [Formula Ib-i, 4-glyoxyliminosalicylic acid]	17.3 mg/mL	–
CCOC(=O)C=Nc1ccc(C(=O)O)c(O)c1 [Formula Ib-ii, 4-ethylgloxyliminosalicylic acid]	10.2 mg/mL	–
Nc1ccc(O)c(C(=O)O)c1 [Mesalazine, 5-aminosalicylic acid, reference compound]	–	appearance of solution after storage [3]: turned a dark brown color, and a significant amount of brown solid material precipitated
CCOC(=O)/C=N\c1ccc(O)c(C(=O)OCC)c1 [Formula Ia-ii, ethyl 5-ethylglyoxyliminosalicylate]	0.13 mg/mL	–

The next lines start with results.

solubility [1]	Structure (SMILES)	other results
7.35 mg/mL	COc1cc(/C=N\c2ccc(C(=O)O)c(O)c2)ccc1O [Formula IIb-i, 4-vanilliniminosalicylic acid]	–
12 mg/mL	CCOC(=O)/C=N\c1ccc(O)c(C(=O)O)c1 [Formula Ia-iii, 5-ethylglyoxyliminosalicylic acid]	decomposed to 5-ASA (LCMS, single ion monitoring) [2]: ~90%; decomposition to release 5-ASA (infusion MS) [2]: partially decomposed
11 mg/mL	O=C(O)/C=N\c1ccc(O)c(C(=O)O)c1 [Formula Ia-i, 5-glyoxyliminosalicylic acid]	percentage of 5-aminosalicylic acid by HPLC ([4]; 12 mg compound + 12 mg 5-aminosalicylic acid in 6 ml buffered saline, ambient temperature, 22.75 hours, no other peaks): 87%; mesalamine evolution ([4]; same experiment in the absence of saline): very little mesalamine evolution; appearance of solution after storage [3]: still clear and lightly colored; storage stability relative to mesalazine ([3]; dissolved in aqueous sodium phosphate buffer, 3 days ambient): significantly greater degree of storage stability than mesalazine
3.45 mg/mL	COc1cc(/C=N\c2ccc(O)c(C(=O)O)c2)ccc1O [Formula IIa-i, 5-vanilliniminosalicylic acid]	–
